Where two headings read alike, the source gives them in different places.
Legend:
human cancer cell lines = details: cited from earlier work
mouse xenograft model = details: in vivo; cited from earlier work
[1] = target: T1, MDA-9 PDZ12 tandem domain (PDZ1) (Homo sapiens, UniProt O00560); test: NMR [15N,1H] HSQC chemical shift change and titration binding; details: for Binding affinity ranking: chemical shift change (DPPM) of backbone amide of residue 147, 50 μM PDZ12, compound at 1:1 molar ratio
T1 construct: the MDA-9/Syntenin construct used for the screen contains both PDZ domains; made in house
T1 sequence (O00560 110-274): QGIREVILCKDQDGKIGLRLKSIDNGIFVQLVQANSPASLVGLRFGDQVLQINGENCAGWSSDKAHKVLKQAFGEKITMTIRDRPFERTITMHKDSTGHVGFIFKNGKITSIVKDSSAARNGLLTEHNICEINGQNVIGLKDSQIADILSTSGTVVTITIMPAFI
Protocol: FIGS. 4A-4E. FIG. 4A. […] FIG. 4B. Superposition of 2D [^15N, ^1H]-HSQC spectra of 50 μM MDA-9 PDZ12 tandem domain in the absence and presence of 350 μM 113B7. FIG. 4C. Binding curve and representative spectra for the titration of 113B7 against MDA-9 PDZ12 tandem domain. Top: Zoom of box region in FIG. 4B after titrating 113B7 into Mda9 PDZ, tandem domain. […] Bottom: Titration curve of 113B7 for residue A147. […] FIG. 4D. […] FIG. 4E. Docked structure of 113B7 in complex with MDA-9 PDZ tandem domain (PDB: 1W9E). The pose was obtained with GOLD. Two PDZ domains of MDA-9 are labeled.
NMR based screening of an house assembled fragment library of about 5,000 compounds using [^15N,^1H] […] The proposed docked structure of PDZ1i in the PDZ1 domain and interdomain of MDA-9/Syntenin is shown in FIGS. 4A-4E and FIG. 5, while the chemical structure of PDZ1i is also shown in FIGS. 4A-4E and FIG. 5.
In all binding assays, the MDA-9/Syntenin construct used for the screen contains both PDZ domains. Constructs uniformly labeled with ^15N and ^13C or ^13C-Met selectively labeled are used for binding, mapping and structural studies. These same proteins are used for ITC binding studies.

migration (SAR, Table 4) = assay type: cell-based
[2] = tested on: Dishevelled PDZ/Fz7 Wnt receptor; details: Xenopus embryos; cited from earlier work
[3] = NMR titration following backbone amide of residue 147, read-out: Kd values

Row | Kd [1, 3] [µM] | Binding affinity ranking [1] | Molecule | also measured
1 | 245 | 2 (2 for DPPM 0.02-0.04) | Cc1cc(=O)n2nc(C(=O)Nc3ccc(O)cc3)nc2[nH]1 [112D11] | –
2 | 944 | 1 (1 for DPPM 0.00-0.02) | Cc1cc(=O)n2nc(C(=O)Nc3ccc(N)cc3)nc2[nH]1 [112E7] | –
3 | 1610 | 1 (1 for DPPM 0.00-0.02) | O=C(Nc1ccc(O)cc1)c1nc2[nH]c3c(c(=O)n2n1)CCC3 [112E12] | –
4 | – | 1 (1 for DPPM 0.00-0.02) | Cc1cc(O)n2nc(C(=O)Nc3ccc(O)cc3)nc2n1 [112F1] | –
5 | 57.3 | 6 (6 for DPPM above 0.1) | Cc1cc(=O)n2nc(C(=O)Nc3cc(Cl)c(O)c(Cl)c3)nc2[nH]1 [112G1] | –
6 | 147 | 4 (4 for DPPM 0.06-0.08) | Cc1cc(=O)n2nc(C(=O)Nc3ccc(O)c(F)c3)nc2[nH]1 [112G2] | –
7 | 34.3 | 6 (6 for DPPM above 0.1) | Cc1cc(=O)n2nc(C(=O)Nc3cc(Cl)c(N)cc3Cl)nc2[nH]1 [112G4] | Kd ([1]; fragment hits, FIG. 55B, read-out: Kd): ~300 µM
8 | 263 | 2 (2 for DPPM 0.02-0.04) | Nc1ccc(NC(=O)c2nc3[nH]c4c(c(=O)n3n2)CCC4)cc1 [112G11] | –
9 | – | 2 (2 for DPPM 0.02-0.04) | Cc1cc(=O)n2nc(C(=O)Nc3ccc4c(c3)OCCO4)nc2[nH]1 [cmpd7] | –
10 | – | 3 (3 for DPPM 0.04-0.06) | COc1cccc(NC(=O)c2nc3[nH]c(C)cc(=O)n3n2)c1 [cmpd8] | –
11 | – | 3 (3 for DPPM 0.04-0.06) | Cc1cc(=O)n2nc(C(=O)Nc3ccc4c(c3)OCO4)nc2[nH]1 [cmpd9] | –
12 | 151 | 4 (4 for DPPM 0.06-0.08) | Cc1cc(=O)n2nc(C(=O)Nc3cccc(Cl)c3)nc2[nH]1 [cmpd10] | –

More lines, now with the values behind:

Row | Molecule | Kd [1, 3] [µM] | Binding affinity ranking [1] | also measured
13 | CCCCC(O)C1Nc2cc(C)c(C(=O)O)cc2C1CCc1ccccc1 (stereo not shown) | – | – | apoptosis (human cancer cell lines): Induction of apoptosis in human cancer cell lines; tumor growth (mouse xenograft model): tumor growth inhibition in a mouse xenograft model
14 | Cc1cc(=O)n2nc(COc3ccccc3)nc2[nH]1 [30A9] | 197 | 4 (4 for DPPM 0.06-0.08) | –
15 | O=C(Nc1ccc(O)c(Cl)c1)c1nc2[nH]c3c(c(=O)n2n1)CCC3 [112F10] | – | 4 (4 for DPPM 0.06-0.08) | –
16 | O=C(Nc1cc(Cl)c(O)c(Cl)c1)c1nc2[nH]c3c(c(=O)n2n1)CCC3 [112F11] | – | 5 (5 for DPPM 0.08-0.1) | –
17 | O=C(Nc1ccc(O)c(F)c1)c1nc2[nH]c3c(c(=O)n2n1)CCC3 [112F12] | 166 | 2 (2 for DPPM 0.02-0.04) | –
18 | O=C(Nc1ccc(O)c(Cl)c1)c1nc2[nH]c3c(c(=O)n2n1)CCC3 [112G3] | 119 | – | –
19 | Cc1cc(NC(=O)c2nc3[nH]c4c(c(=O)n3n2)CCC4)c(C)cc1NC(=O)CCc1nnc(-c2cccc(C(F)(F)F)c2)o1 [112H9] | 38.3 | 2 (2 for DPPM 0.02-0.04) | % migr. (migration (SAR, Table 4)): 24%; Kd ([1]; estimated by NMR titration in 2D HSQC experiments (Table 4), read-out: Kd): 38 µM
20 | Cc1c(C)c(NC(=O)c2nc3[nH]c4c(c(=O)n3n2)CCC4)c(C)c(C)c1N [113B8] | 151 | 5 (5 for DPPM 0.08-0.1) | –
21 | Cc1cc(NC(=O)c2nc3[nH]c4c(c(=O)n3n2)CCC4)c(C)cc1NC(=O)Cc1ccc(-c2ccccc2)cc1 [113B9] | – | N.B. | –
22 | Cc1cc(NC(=O)c2nc3[nH]c4c(c(=O)n3n2)CCC4)c(C)cc1NC(=O)CCc1nnc(-c2ccsc2)o1 [113B11] | – | 3 (3 for DPPM 0.04-0.06) | –
23 | COc1ccc(Br)c(-c2nnc(CCC(=O)Nc3cc(C)c(NC(=O)c4nc5[nH]c6c(c(=O)n5n4)CCC6)cc3C)o2)c1 [113B12] | – | 1 (1 for DPPM 0.00-0.02) | –
24 | CC(NC(=O)C(OC(=O)C(C)NC(=O)OC(C)(C)C)C(C)C)C(=O)OC(C(=O)O)C(C)C (stereo not shown) [NSC-668036] | – | – | Wnt3A-induced canonical Wnt signaling [2]: In Xenopus embryos, NSC-668036 inhibits the canonical Wnt signaling induced by Wnt3A (34).
25 | Cc1cc(=O)n2nc(NCc3ccccc3)nc2[nH]1 [cmpd1] | – | 2 (2 for DPPM 0.02-0.04) | –
26 | Cc1cc(=O)n2nc(CCc3ccccc3)nc2[nH]1 [cmpd2] | – | 3 (3 for DPPM 0.04-0.06) | –
27 | O=c1c2c([nH]c3nc(NCc4cccs4)nn13)CCC2 [cmpd3] | – | 1 (1 for DPPM 0.00-0.02) | –
28 | Cc1cc(=O)n2nc(SCc3ccccc3)nc2[nH]1 [cmpd4] | – | 4 (4 for DPPM 0.06-0.08) | –
29 | Cc1[nH]c2nc(C(=O)NCc3ccccc3)nn2c(=O)c1C [cmpd5] | – | 2 (2 for DPPM 0.02-0.04) | –
30 | O=c1[nH]c2sc3c(c2c2ncnn12)CCCC3 [cmpd6] | – | 1 (1 for DPPM 0.00-0.02) | –
31 | O=c1c2c([nH]c3nc(COc4ccccc4)nn13)CCC2 [cmpd11] | 171 | 5 (5 for DPPM 0.08-0.1) | –
32 | O=c1c2c([nH]c3nc(CCc4ccccc4)nn13)CCC2 [cmpd13] | – | 3 (3 for DPPM 0.04-0.06) | –
33 | CCCc1cc(=O)n2nc(COc3ccccc3)nc2[nH]1 [cmpd14] | – | 1 (1 for DPPM 0.00-0.02) | –
34 | GSKTLQSWRRYH [Fz7 peptide] | – | – | Wnt3A-induced canonical Wnt signaling [2]: peptide attenuates Wnt3A-induced
35 | SGKLKLMTTV [Dapper peptide] | – | – | Wnt3A-induced canonical Wnt signaling [2]: peptide attenuates Wnt3A-induced
